Assay results from PMC11191317, “PNSC928, a plant-derived compound, specifically disrupts CtBP2-p300 interaction and reduces inflammation in mice with acute respiratory distress syndrome” (Biology Direct, 2024).

Tested on: C57BL/6 mice
Assay: In vivo toxicity in C57BL/6 mice (body weight, serum cytokines, liver and kidney function, H&E)
Parameters: species or system mouse
Conditions: for Body weight: C57BL/6 mice, 6 days, MTOB 400 and 800, NSC95397 2 and 4, C646 5 and 10, A-485 40 and 80, TPCA1 10 and 20, BOT64 30 and 60 mg/kg
Procedure: Whole blood samples were allowed to stand undisturbed at room temperature for 15 min before being centrifuged at 1,000 × g for 10 min. The supernatant serum and BALF were used to measure concentrations of IL-1β, IL-6, IL-15, IL-18, and TNF-α with specific enzyme-linked immunosorbent assay (ELISA) kits as per manufacturer guidelines. The ELISA kits used were: IL-1β (Thermo Fisher; #KMC0011), IL-6 (Thermo Fisher; #KMC0061), IL-15 (Abcam; Shanghai, China; #ab275898), IL-18 (Thermo Fisher; #BMS618-3), and TNF-α (Thermo Fisher; #BMS607-3). Total BALF protein levels were measured using the BCA Protein Assay Kit (Abcam; #ab102536) according to the manufacturer’s protocol.
Serum activities or levels of alanine aminotransferase (ALT), aspartate aminotransferase (AST), alkaline phosphatase (ALP), blood urea nitrogen (BUN), and creatinine were measured using commercially available assay kits, including the ALT Activity Assay Kit (Abcam; #ab105134), AST Activity Assay Kit (Abcam; #ab105135), ALP Assay Kit (Abcam; #ab83369), BUN Colorimetric Detection Kit (Thermo Fisher; #EIABUN), and Creatinine Assay Kit (Abcam; #ab65340). All experimental procedures were conducted according to the respective manufacturer’s protocols.
Lung, heart, liver, and kidney tissues were collected from various groups of mice, including ARDS, ARDS + MTOB, ARDS + NSC95397, ARDS + C646, ARDS + A-485, ARDS + TPCA1, ARDS + BOT64, and ARDS + PNSC928. The tissues were fixed in 10% neutral-buffered formalin (Sigma-Aldrich; #HT501128) for 48 h, then dehydrated through a graded ethanol series (70%, 80%, 90%, and 100%, for 30 min each). The dehydrated tissues were embedded in paraffin blocks and allowed to solidify. The paraffin blocks were sectioned at 5 μm, with the sections floated on a water bath to remove wrinkles before being transferred onto glass slides. The slides were dried, dewaxed with xylene, and rehydrated through a reverse ethanol series (100%, 90%, 80%, and 70%, for 30 min each), followed by a final rinse in distilled water. The rehydrated sections were stained using the Hematoxylin and Eosin Kit (Abcam; #ab245880) according to the manufacturer’s guidelines. After staining, the sections were dehydrated through a graded ethanol series (70%, 80%, 90%, and 100%, for 30 min each), then cleared with xylene. The sections were mounted with a mounting medium (Abcam; #ab64230) and imaged using a Nikon light microscope for tissue morphology.
C57BL/6 mice were administrated with MTOB (400 and 800 mg/kg), NSC95397 (2 and 4 mg/kg), C646 (5 and 10 mg/kg), A-485 (40 and 80 mg/kg), TPCA1 (10 and 20 mg/kg), BOT64 (30 and 60 mg/kg) for a duration of 6 days (n = 10 for each group). (A-F) Body weights were measured every two days. (G-K) Serum concentrations of different groups of mice. (G) IL-1β, (H) IL-6, (I) IL-15, (J) IL-18, and (K) TNF-α. *P < 0.05
C57BL/6 mice were administrated with MTOB (400 and 800 mg/kg), NSC95397 (2 and 4 mg/kg), C646 (5 and 10 mg/kg), A-485 (40 and 80 mg/kg), TPCA1 (10 and 20 mg/kg), and BOT64 (30 and 60 mg/kg) for a duration of 6 days (n=10 for each group). (A) Serum concentration of IFN-γ in different groups of mice. (B) Serum BUN concentration. (C) Activities of ALT, AST, and ALP in serum. (D) Serum creatinine concentration. (E) Representative H&E staining images of lung, liver, kidney, and heart from the following groups of mice: Control, MTOB (800 mg/kg), NSC95397 (4 mg/kg), C646 (10 mg/kg), A-485 (80 mg/kg), TPCA1 (20 mg/kg), and BOT64 (60 mg/kg). Bars=100 μm. For the significant difference analysis in B-D, all drug-treated groups were compared with the Control group of mice. *P<0.05; **P<0.01; ***P<0.001.
[…] (A) Serum ALT activity. (B) Serum AST activity. (C) Serum ALP activity. (D) Serum BUN concentration. (E) Serum creatinine concentration. (F) Body weights were recorded every two days. (G) Representative H&E staining images of lung, liver, kidney, and heart. Bars=100 μm.

[1] = PNSC928 0, 5, 10, and 20 mg/kg at two-day intervals for 6 days

Row | Structure (SMILES) | Body weight | other results
1 | CNC(=O)Nc1ccc2c(c1)CC[C@@]21OC(=O)N(CC(=O)N(Cc2ccc(F)cc2)[C@@H](C)C(F)(F)F)C1=O [A-485] | significant decrease in body weight | 
2 | CC1(C)CC(=O)c2sc(=Nc3ccccc3)oc2C1 [BOT64] | significant decrease in body weight | 
3 | CC1=NN(c2ccc(C(=O)O)cc2)C(=O)/C1=C\c1ccc(-c2cc(C)c(C)cc2[N+](=O)[O-])o1 [C646] | significant decrease in body weight | 
4 | CSCCC(=O)C(=O)O [MTOB] | significant decrease in body weight | 
5 | O=C1C(SCCO)=C(SCCO)C(=O)c2ccccc21 [NSC95397] | significant decrease in body weight | 
6 | CC(=CCCC1=CCC(C2COC(=O)C2)OC1O)CCC1=C(C)CCCC1(C)C (stereo not shown) [PNSC928] |  | Activities and levels of ALT, AST, ALP, BUN, and creatinine [1]: no discernible alterations; Histological examination of lung, heart, liver, and kidney [1]: no conspicuous damage; Mouse body weights [1]: did not affect mouse body weights; Behavioral activities (feeding, balance ability, sleeping patterns) (PNSC928 0, 5, 10, and 20 mg/kg at two-day intervals for 6 days, data not shown): did not affect
7 | NC(=O)Nc1sc(-c2ccc(F)cc2)cc1C(N)=O [TPCA1] | significant decrease in body weight | 
